Columns and labels:
HepG2 cells = assay: Glycogen synthesis in HepG2 cells; format: cell-based; details: HepG2, absence of insulin
ob/ob mice = assay: Antihyperglycemic activity and serum parameters in ob/ob mice; format: in vivo; set-up: decrease in triglyceride as compared to the control / lowering of FFA compared to the control / decrease in the GHb level compared to the control / reduction of serum insulin / reduction of triglycerides / reduction of free fatty acid (FFA) levels: concentration or dose not given beside the values
COX-2 = biological target: T1, COX-2 (Mus musculus, UniProt Q05769); assay: LPS-induced COX-2 activity in RAW cells (PGE2 production); format: cell-based; details: 0.1-100 μM, FIG. 12
T1 sequence (Q05769 18-604): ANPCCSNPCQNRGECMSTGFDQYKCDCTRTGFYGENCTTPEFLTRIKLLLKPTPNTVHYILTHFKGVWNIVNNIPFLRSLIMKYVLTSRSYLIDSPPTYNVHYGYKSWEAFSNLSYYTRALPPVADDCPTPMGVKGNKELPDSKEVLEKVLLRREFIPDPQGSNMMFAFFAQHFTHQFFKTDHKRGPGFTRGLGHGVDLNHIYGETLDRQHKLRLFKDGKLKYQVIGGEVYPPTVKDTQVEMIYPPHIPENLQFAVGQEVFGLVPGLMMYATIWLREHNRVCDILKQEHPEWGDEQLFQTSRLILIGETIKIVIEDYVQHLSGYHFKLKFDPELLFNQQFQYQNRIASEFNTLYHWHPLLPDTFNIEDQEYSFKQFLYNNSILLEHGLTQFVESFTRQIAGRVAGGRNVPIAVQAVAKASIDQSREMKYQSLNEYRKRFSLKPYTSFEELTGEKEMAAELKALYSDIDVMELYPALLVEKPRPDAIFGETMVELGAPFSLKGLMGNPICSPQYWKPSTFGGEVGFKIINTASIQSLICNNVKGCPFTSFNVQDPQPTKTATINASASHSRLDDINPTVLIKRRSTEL
Experimental: After 1 hour LPS (0.1 pg/mL) was added and cells were incubated an additional 6 hours. Cell supernatant was then collected, aliquoted and frozen at −70° C., and aliquots used to determine COX-2 and COX-1 activity. Compound 11, but not rosiglitazone, inhibited the activity of COX-2 (as measured by PGE2 production in a 50 μl sample).

3T3-L1 adipocytes = assay: Glucose uptake in differentiated 3T3-L1 adipocytes; format: cell-based
Experimental: Referring to FIG. 8 glucose uptake in 3T3-L1 differentiated adipocytes was measured after treatment with the test compound. The assay was conducted according to the method of Tafuri, Endocrinology, 137, 4706-4712 (1996). The serum-starved cells were treated with the test compound for 48 hours at different concentrations, then washed and incubated in glucose-free media for 30 minutes at 37° C. Then ^14C-deoxyglucose was added and uptake was monitored for 30 minutes under incubation. After washing, the cells were lysed (0.1% SIDS) and counted.
Basal glucose uptake was measured in differentiated 3T3-L1 adipocytes following the protocol of Tafuri (6) with modifications. Briefly, 3T3-L1 fibroblasts, obtained from ATCC (Manassas, Va.), were differentiated to adipocytes by treating cells with porcine insulin (1 μg/ml for 4 days), dexamethasone (0.25 μM for first 2 days) and isobutyl methyl xanthine (IBMX, 0.5 mM for first 2 days) (all from Sigma Chemicals, St Louis, Mo.) following the protocol of Frost and Lane (7). Differentiated adipocytes were incubated in Dulbecco's Modified Eagle Medium (DMEM) containing 10% fetal bovine serum (GibcoBRL, Gaithersburg, Md.) with various concentrations of Compound 11 or vehicle (0.1% DMSO) for 48 h in 24-well plates, in triplicate. Cells were washed with phosphate buffered saline (PBS, 150 mM NaCl, 1 mM KH2PO4, 3 mM Na2HPO4; pH 7.4) and incubated in glucose-free DMEM for 2 h at 37° C. The cells were washed 3 times with Krebs Ringer Phosphate Buffer (KRP). Glucose uptake was initiated by addition of 0.25 μCi 2-^14C(U)-deoxy-D-glucose (300 μCi/mmol, American Radiolabeled Chemicals Inc., St Louis, Mo.) per well and the cells incubated for 10 min at room temperature in the presence of 0.1 mmol cold 2-deoxy-D-glucose. Finally, the cells were washed three times with ice-cold PBS containing 10 mM cold glucose, lysed with 0.5% SDS, and counted in a scintillation counter (Beckman LS6500).

[1] = after fourteen days of treatment, p<0.05 vs vehicle
[2] = ob/ob mice, 50 mg/kg, 14 days, FIG. 17A

SMILES: COC(=O)C(=Cc1cc(OC)cc(OC)c1)c1ccc(Oc2ccc(CC3SC(=O)NC3=O)cc2)cc1 (centres unmarked) [Compound 11, 3-(3,5-Dimethoxyphenyl)-2-{4-[4-(2,4-dioxothiazolidin-5-ylmethyl)-phenoxy]-phenyl}-acrylic acid methyl ester]
- 14C-glucose incorporated into glycogen, dose response (HepG2 cells; FIG. 25A): dose-dependent increase
- maximal increase in glycogen synthesis over baseline (HepG2 cells; at 48 to 72 h, FIG. 25B): 3.1 fold
- reduction of free fatty acid (FFA) levels (ob/ob mice; [1]): 33%
- reduction of serum insulin (ob/ob mice; [1]): 58%
- reduction of triglycerides (ob/ob mice; [1]): 65%
- glycosylated hemoglobin after treatment (ob/ob mice; after fourteen days of treatment, reduced from 5.2%, p=0.15, FIG. 18): 3.8%
- dose response of glucose lowering (ob/ob mice; ob/ob mice (n=8), three different doses, FIG. 19): dose dependent glucose lowering effect
- weight gain in treated and control animals (ob/ob mice; ob/ob mice, 50 mg/kg oral once daily, 8 to 9 days): similar
- decrease in blood glucose levels (ob/ob mice; ob/ob mice, 50 mg/kg oral once daily, 8 to 9 days, FIG. 21): 59 % vs. baseline
- normalization of blood glucose levels (ob/ob mice; [2]): normalized by three days
- time to significant decrease of blood glucose levels (ob/ob mice; [2]): ≤ 48 h
- body weight compared to vehicle treated group (ob/ob mice; ob/ob mice, 50 mg/kg, 14 days, FIG. 17B): did not see any increase
- drop of serum insulin (ob/ob mice; ob/ob mice, after 10 days of treatment, FIG. 6A): 58%
- lowering of FFA compared to the control (ob/ob mice; ob/ob mice, after 10 days of treatment, FIG. 6C): 33%
- decrease in the GHb level compared to the control (ob/ob mice; ob/ob mice, after 14 days of treatment, FIG. 6D): 1.3%
- decrease in triglyceride as compared to the control (ob/ob mice; ob/ob mice, after treatment for 10 days, FIG. 6B): 65%
- drop in blood glucose level (ob/ob mice; ob/ob mice, oral 50 mg/kg, 15 days, FIG. 2A): 62%
- body weight, control vs treatment group (ob/ob mice; ob/ob mice, oral 50 mg/kg, FIG. 2B): no significant increase
- in vivo potency relative to rosiglitazone on a mole-per-mole basis (more potent) (ob/ob mice; ob/ob mice, same glucose lowering at 10 mg/kg): 46%
- inhibition of COX-2 activity (PGE2 production) (COX-2): inhibited
- glucose uptake activity in words (3T3-L1 adipocytes; 0.1 μM): retained activity, but less than that of rosiglitazone
- glucose uptake activity in words (3T3-L1 adipocytes; 1 μM): comparable to rosiglitazone
- effect on insulin-stimulated glucose uptake (3T3-L1 adipocytes; 5 μM with increasing insulin, FIG. 20B): additive, not synergistic
- maximum glucose uptake over basal levels (3T3-L1 adipocytes; 0.01-10 μM, 48 h, mean±SE, FIG. 20A): 1.33±0.02 fold
- % Glucose uptake 0.1 μm (3T3-L1 adipocytes; 0.1 μm, average of quadruplicate ± SD): 161.6 ± 11.4 % basal of the non treated cells
- % Glucose uptake 1.0 μm (3T3-L1 adipocytes; 1.0 μm, average of quadruplicate ± SD): 218.1 ± 10.0 % basal of the non treated cells
